According to paper PMC4494942, “Sorafenib and DE605, a novel c-Met inhibitor, synergistically suppress hepatocellular carcinoma” (Oncotarget, 2015):
Values belong to the molecule of their own block, whether it stands above or below them.

Tests used:
[1] = test system: MHCC97H human HCC xenograft model and HuPrime model with human HCC explants; conditions: cited from earlier work
PLC/PRF/5 cells [2] = test: MTT cell viability assay, PLC/PRF/5; type: cell-based, human; conditions: PLC/PRF/5, 72 h
Description: (§1) Cells were seeded in 96-well plates (3,000 cells/well) and incubated overnight for attachment, and were then treated with indicated agents in 10% FBS-supplemented medium for 72 hours. The medium was replaced with MTT (0.5 mg/ml) at 37°C for 2 hours. After removal of medium, the cells were lysed with 200 μl per well dimethyl sulfoxide (DMSO), and absorbance at 570 nm was measured and the values of 50% inhibition concentration (IC50) for each drug were determined. Cell viability was evaluated by measuring the optical density at 570 nm using an Automated Microplate Reader (Bio-Tek, USA). The percentage of viable cells was calculated using the following formula: cell viability (%) = (OD of treated cells/OD of control cells) × 100. All assays were performed in triplicate with at least 3 independent experiments.

HepG2 cells = test: MTT cell viability assay, HepG2; type: cell-based; conditions: Homo sapiens, HepG2, 72 h
Description: as §1

HuH7 cells = test: MTT cell viability assay, HuH7; type: cell-based; conditions: Homo sapiens, Huh-7, HuH7, 72 h
Description: as §1

PLC/PRF/5 cells [3] = test: cell-cycle distribution by flow cytometry; type: cell-based, human; conditions: PLC/PRF/5, 72 h, single agent
Description: As sorafenib and c-Met inhibitors reportedly induce apoptosis in cancer cells, we examined the impact of our drug combination on programmed cell death. First, the effect of co-administration of DE605 and sorafenib on cell-cycle distribution was analyzed by flow cytometric analysis.
Figure 3 Effects of sorafenib in combination with DE605 on cell-cycle progression in PLC/PRF/5 cells (A) PLC/PRF/5 cells were treated with the indicated drugs for 72 hours, and cell-cycle distribution was analyzed by flow cytometry. (B) Statistical analysis of sub-G1 phase in PLC/PRF/5 cells exposed to DMSO, sorafenib alone, DE605 alone, or in sorafenib/DE605 combination. Data, mean ± SD (n = 3).
After drug treatment, the cells were harvested by trypsinization, washed with PBS, then pellets were resuspended and fixed in ethanol (70%, v/v) at −20°C overnight, and washed once with PBS. After centrifugation, the cells were incubated for 15 minutes at room temperature in 0.1 ml of phosphate-citric acid buffer. Cells were stained with propidium iodide staining buffer containing Triton X-100 (0.1%, v/v), RNase A (100 μg/ml), and propidium iodide (80 μg/ml) for 30 minutes in the dark. Cell-cycle distribution was analyzed by flow cytometry with CellQuest software (Becton Dickinson).

Hep3B cells = test: MTT cell viability assay, Hep3B; conditions: Homo sapiens, 72 h, read-out: cell viability IC50
Description: as §1

[4] = test system: PLC/PRF/5 tumor xenografts; test: PLC/PRF/5 tumor xenograft model; conditions: oral, qd, 28 days; sorafenib 60 mg/kg, DE605 80 mg/kg; versus control group
Description: (B) body weights were measured twice per week, and are expressed as mean ± SD. (C-D) IHC analysis of intratumoral proliferation in PLC/PRF/5 xenograft tumors. Tumors were harvested and paraffin-embedded tumor tissues were subjected to immunostaining for Ki-67 (C) and TUNEL (D). Images were captured by Zeiss Axioskop-2 microscope under 200× magnification. Scale bar, 100 μm.
All surgery was performed under sodium pentobarbital anesthesia, and all efforts were made to minimize suffering. Female athymic nude mice of 4–5 weeks of age were purchased from Shanghai SLAC Laboratory Animal Co., Ltd. (Shanghai, China) and were housed in the Animal Resource Facility. […] Tumors were monitored twice weekly. As previously described [54], tumor size was measured on two axes with the aid of Vernier calipers and tumor volume (mm^3) was calculated using the formula: 1/2(L × W^2) where L is the longest and W is the shortest axis. […] For tumor growth inhibition (TGI), the antitumor effects are calculated by dividing the tumor volumes from treatment groups by those of the control groups and multiplied by 100. […]
The type of cell death (necrosis/apoptosis) was evaluated by the terminal deoxynucleotidyl transferase-mediated deoxyuridine biotin nick-end labeling (TUNEL) assay with an Apo-Direct kit (Pharmingen, San Diego, CA) as previously reported [55]. […]

SMILES: CN1CCC(COc2cnc(-c3cccc(Cn4nc(-c5cccc(C#N)c5)ccc4=O)c3)nc2)CC1 [MSC2156119J]
efficacy of combination with sorafenib [1]: did not improve efficacy

IC50 (HepG2 cells): 3.3 µM
IC50 (HuH7 cells): 2.4 µM
IC50 (Hep3B cells): 10.5 µM
SMILES: CNC(=O)c1cc(Oc2ccc(NC(=O)Nc3ccc(Cl)c(C(F)(F)F)c3)cc2)ccn1 [sorafenib]
IC50 (PLC/PRF/5 cells [2]; Homo sapiens, MTT): 6.7 µM
cell-cycle arrest (PLC/PRF/5 cells [3]): no appreciable cell-cycle arrest
tumor growth inhibition (TGI) [4]: 17.3%

SMILES: O=C1NC(=O)[C@@H](c2cn3c4c(cccc24)CCC3)[C@@H]1c1c[nH]c2ccccc12 [tivantinib]
interaction with sorafenib on cell viability (combination index) (PLC/PRF/5 cells [2]; tivantinib 0.25 and 0.5 μM in combination with sorafenib): synergistic effect
